# Several values for one entry are separate records, joined by “and”; a condition that tells them apart may be missing. Equal values may be shown once.
# Assays:
# Experiment in all cases: radiometric filter-binding kinase assay, Kinase HotSpot
# Conditions in all cases: compound 0.5 µM; ATP 10 µM
# [1] = target: NUAK2 (human) (UniProt Q9H093)
# [2] = target: TEC (human) (UniProt P42680)
# [3] = target: OXSR1 (human) (UniProt O95747)
# [4] = target: GRK5 (human) (UniProt P34947)
# [5] = target: MYLK (human) (UniProt Q15746)
# [6] = target: RPS6KB1 (human) (UniProt P23443)
# [7] = target: PDGFRB (human) (UniProt P09619)
# [8] = target: EPHA5 (human) (UniProt P54756)
# [9] = target: NEK3 (human) (UniProt P51956)
# [10] = target: TBK1 (human) (UniProt Q9UHD2)
# TBK1 (human), sequence (Q9UHD2 whole entry, looked up): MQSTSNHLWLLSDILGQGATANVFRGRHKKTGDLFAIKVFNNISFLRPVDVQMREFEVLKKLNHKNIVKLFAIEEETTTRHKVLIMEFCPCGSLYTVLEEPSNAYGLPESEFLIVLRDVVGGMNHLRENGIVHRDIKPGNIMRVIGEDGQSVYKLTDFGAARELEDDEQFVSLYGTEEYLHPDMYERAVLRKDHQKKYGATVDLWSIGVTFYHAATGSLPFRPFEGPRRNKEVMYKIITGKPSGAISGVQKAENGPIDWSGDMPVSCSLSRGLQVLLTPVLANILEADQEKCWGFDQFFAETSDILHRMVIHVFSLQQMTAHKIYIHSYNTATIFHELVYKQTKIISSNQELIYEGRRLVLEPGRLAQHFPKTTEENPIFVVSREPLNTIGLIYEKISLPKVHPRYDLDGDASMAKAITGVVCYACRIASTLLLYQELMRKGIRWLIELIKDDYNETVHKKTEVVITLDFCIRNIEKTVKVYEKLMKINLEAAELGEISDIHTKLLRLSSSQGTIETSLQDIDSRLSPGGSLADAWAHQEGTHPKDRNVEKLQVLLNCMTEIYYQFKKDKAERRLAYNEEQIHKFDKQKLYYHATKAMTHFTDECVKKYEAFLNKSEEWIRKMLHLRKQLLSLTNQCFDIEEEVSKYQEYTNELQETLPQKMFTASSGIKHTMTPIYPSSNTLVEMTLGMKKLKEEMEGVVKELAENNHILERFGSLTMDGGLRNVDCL
# [11] = target: AURKA (human) (UniProt O14965)
# [12] = target: HCK (human) (UniProt P08631)
# [13] = target: CAMK4 (human) (UniProt Q16566)
# [14] = target: SLK (human) (UniProt Q9H2G2)
# [15] = target: LYN (human) (UniProt P07948)
# [16] = target: TNK2 (human) (UniProt Q07912)
# TNK2 (human), sequence (Q07912 whole entry, looked up): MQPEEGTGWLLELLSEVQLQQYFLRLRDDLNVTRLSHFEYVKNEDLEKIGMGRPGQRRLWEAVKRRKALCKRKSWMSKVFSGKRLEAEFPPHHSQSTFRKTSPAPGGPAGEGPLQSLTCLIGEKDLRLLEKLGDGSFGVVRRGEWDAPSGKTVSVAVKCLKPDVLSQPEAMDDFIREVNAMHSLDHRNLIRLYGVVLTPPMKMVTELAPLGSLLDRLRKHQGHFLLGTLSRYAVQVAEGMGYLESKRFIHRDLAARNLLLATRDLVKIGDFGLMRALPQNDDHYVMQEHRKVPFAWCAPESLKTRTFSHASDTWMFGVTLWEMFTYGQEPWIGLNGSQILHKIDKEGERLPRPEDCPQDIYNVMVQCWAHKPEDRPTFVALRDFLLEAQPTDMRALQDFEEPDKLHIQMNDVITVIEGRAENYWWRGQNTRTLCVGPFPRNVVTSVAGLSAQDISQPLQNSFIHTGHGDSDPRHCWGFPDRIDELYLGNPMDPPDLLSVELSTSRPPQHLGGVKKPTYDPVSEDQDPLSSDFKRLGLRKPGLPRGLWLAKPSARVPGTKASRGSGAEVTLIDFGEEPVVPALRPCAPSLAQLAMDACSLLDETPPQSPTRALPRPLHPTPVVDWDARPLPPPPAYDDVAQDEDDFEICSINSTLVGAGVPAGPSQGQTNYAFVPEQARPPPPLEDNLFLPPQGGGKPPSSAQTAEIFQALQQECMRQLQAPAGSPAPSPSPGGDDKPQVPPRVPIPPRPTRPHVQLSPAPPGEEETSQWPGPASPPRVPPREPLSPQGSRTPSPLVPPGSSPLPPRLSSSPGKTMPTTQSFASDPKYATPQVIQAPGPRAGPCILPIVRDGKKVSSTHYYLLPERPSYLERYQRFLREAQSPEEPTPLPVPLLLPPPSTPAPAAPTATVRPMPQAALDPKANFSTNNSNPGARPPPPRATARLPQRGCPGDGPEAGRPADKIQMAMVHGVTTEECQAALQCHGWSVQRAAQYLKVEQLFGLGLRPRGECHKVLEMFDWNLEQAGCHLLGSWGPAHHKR
# [17] = target: NEK11 (human) (UniProt Q8NG66)
# [18] = target: HIPK2 (human) (UniProt Q9H2X6)
# HIPK2 (human), sequence (Q9H2X6 whole entry, looked up): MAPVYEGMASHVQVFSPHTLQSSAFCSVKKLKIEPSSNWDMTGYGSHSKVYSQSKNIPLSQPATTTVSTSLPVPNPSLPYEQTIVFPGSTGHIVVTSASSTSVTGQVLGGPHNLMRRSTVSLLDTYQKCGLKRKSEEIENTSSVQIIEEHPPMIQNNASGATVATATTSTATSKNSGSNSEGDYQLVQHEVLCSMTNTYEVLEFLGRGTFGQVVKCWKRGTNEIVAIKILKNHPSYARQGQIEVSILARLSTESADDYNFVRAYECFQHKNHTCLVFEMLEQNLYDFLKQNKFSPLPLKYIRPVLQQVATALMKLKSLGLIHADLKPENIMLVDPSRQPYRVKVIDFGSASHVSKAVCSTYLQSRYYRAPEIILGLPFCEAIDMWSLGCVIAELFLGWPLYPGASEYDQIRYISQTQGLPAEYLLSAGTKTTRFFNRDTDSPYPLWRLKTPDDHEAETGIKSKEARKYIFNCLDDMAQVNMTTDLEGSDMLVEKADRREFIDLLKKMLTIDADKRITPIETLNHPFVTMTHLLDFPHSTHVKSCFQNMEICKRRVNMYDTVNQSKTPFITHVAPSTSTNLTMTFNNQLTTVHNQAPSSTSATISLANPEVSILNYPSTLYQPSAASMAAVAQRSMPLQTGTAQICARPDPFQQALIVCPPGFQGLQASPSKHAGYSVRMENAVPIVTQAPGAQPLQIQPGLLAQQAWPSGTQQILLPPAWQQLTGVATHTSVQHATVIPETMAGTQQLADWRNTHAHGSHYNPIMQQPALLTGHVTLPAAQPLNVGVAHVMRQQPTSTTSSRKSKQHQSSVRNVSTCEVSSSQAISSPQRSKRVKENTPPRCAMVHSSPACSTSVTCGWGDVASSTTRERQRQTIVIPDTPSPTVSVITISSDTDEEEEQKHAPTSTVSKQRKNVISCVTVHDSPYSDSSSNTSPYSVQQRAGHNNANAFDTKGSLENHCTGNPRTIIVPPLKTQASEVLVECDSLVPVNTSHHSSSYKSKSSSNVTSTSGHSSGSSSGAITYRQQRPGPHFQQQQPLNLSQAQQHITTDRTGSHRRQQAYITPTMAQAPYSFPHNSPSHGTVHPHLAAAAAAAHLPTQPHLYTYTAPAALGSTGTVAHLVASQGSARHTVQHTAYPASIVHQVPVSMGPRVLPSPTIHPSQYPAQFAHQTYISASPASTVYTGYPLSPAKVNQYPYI
# [19] = target: FRK (human) (UniProt P42685)
# [20] = target: IKBKB (human) (UniProt O14920)
# IKBKB (human), sequence (O14920 whole entry, looked up): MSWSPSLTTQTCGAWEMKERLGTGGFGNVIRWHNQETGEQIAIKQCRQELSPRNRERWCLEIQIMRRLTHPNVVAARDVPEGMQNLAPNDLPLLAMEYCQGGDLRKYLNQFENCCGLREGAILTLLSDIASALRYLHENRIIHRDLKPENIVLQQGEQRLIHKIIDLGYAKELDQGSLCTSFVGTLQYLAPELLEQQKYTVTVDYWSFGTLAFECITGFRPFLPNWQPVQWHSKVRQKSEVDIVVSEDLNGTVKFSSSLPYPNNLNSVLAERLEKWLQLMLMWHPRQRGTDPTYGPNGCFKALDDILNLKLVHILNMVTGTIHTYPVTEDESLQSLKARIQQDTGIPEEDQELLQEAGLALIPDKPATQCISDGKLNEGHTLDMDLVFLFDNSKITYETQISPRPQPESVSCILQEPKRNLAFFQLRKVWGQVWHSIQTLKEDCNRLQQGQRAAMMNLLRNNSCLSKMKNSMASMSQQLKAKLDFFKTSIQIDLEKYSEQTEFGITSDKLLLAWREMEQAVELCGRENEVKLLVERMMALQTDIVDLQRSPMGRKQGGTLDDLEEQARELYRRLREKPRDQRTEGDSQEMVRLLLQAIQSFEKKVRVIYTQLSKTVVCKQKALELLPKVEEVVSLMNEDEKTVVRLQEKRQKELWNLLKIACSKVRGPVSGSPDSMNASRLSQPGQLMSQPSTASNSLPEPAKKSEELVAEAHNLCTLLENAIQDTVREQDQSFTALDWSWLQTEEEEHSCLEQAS
# [21] = target: MAPK13 (human) (UniProt O15264)
# [22] = target: AKT2 (human) (UniProt P31751)
# [23] = target: PTK2 (human) (UniProt Q05397)
# [24] = target: TTK (human) (UniProt P33981)
# [25] = target: MARK4 (human) (UniProt Q96L34)
# [26] = target: CSF1R (human) (UniProt P07333)
# [27] = target: ADRBK1 (human) (UniProt P25098)
# [28] = target: HIPK1 (human) (UniProt Q86Z02)
# [29] = target: MELK (human) (UniProt Q14680)
# [30] = target: DYRK4 (human) (UniProt Q9NR20)
# [31] = target: PRKCB1 (human) (UniProt P05771)
# [32] = target: CAMK1D (human) (UniProt Q8IU85)
# CAMK1D (human), sequence (Q8IU85 whole entry, looked up): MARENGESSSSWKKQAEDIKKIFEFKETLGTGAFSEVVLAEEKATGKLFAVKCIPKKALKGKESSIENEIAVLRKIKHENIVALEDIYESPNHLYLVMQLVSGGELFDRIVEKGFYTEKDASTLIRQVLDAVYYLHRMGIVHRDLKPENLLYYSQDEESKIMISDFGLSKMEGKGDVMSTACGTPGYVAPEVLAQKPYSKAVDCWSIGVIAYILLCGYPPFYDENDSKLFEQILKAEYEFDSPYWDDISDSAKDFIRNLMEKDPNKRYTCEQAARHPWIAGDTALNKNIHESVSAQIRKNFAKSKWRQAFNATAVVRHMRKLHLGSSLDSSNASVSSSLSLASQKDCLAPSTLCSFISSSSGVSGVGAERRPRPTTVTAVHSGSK
# [33] = target: CAMKK1 (human) (UniProt Q8N5S9)
# [34] = target: PIM3 (human) (UniProt Q86V86)
# [35] = target: EPHA3 (human) (UniProt P29320)
# [36] = target: TGFBR2 (human) (UniProt P37173)
# [37] = target: PKN2 (human) (UniProt Q16513)
# [38] = target: STK16 (human) (UniProt O75716)
# STK16 (human), sequence (O75716 whole entry, looked up): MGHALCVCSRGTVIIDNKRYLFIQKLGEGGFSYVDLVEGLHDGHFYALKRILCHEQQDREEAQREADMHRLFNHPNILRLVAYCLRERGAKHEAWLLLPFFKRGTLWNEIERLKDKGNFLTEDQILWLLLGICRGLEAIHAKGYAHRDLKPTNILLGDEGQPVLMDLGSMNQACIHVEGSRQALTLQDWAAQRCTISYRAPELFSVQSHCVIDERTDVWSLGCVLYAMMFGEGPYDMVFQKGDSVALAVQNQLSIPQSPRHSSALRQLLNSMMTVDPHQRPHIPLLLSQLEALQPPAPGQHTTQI
# [39] = target: FYN (human) (UniProt P06241)
# [40] = target: MATK (human) (UniProt P42679)
# [41] = target: CDK4 CCND3 (human) (UniProt P30281+P11802)
# CDK4 CCND3 (human), sequence (P11802 whole entry, looked up): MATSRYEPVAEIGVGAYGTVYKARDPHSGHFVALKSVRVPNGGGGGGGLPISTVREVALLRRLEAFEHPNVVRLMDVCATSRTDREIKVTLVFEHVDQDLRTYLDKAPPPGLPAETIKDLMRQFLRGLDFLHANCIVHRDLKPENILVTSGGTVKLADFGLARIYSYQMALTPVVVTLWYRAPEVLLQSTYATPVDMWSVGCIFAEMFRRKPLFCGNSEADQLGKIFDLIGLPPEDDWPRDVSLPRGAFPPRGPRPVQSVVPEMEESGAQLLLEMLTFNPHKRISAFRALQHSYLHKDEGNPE
# CDK4 CCND3 (human), sequence (P30281 whole entry, looked up): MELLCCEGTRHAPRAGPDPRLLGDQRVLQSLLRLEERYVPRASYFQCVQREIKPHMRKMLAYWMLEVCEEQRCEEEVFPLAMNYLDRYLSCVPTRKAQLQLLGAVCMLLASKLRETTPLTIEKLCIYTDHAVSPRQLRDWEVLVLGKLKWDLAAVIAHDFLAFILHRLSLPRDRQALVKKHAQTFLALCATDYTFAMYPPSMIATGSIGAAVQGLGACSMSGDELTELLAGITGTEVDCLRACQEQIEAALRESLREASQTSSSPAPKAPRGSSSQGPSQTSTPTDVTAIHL
# [42] = target: EPHB1 (human) (UniProt P54762)
smiles,measurement,setting,value
CCc1nc(-c2ccc(OC)cc2)[nH]c1-c1ccncc1,residual activity,[1],129%
same,residual activity,[2],109%
same,residual activity,[3],97.7%
same,residual activity,[4],107%
same,residual activity,[5],104%
same,residual activity,[6],98.4%
same,residual activity,[7],105%
same,residual activity,[8],100%
same,residual activity,[9],92.4%
same,residual activity,[10],99.7%
same,residual activity,[11],93.7%
same,residual activity,[12],95.1%
same,residual activity,[13],97.5%
same,residual activity,[14],99.7%
same,residual activity,[15],101% and 103%
same,residual activity,[16],100%
same,residual activity,[17],77.4%
same,residual activity,[18],93.6%
same,residual activity,[19],101%
same,residual activity,[20],106%
same,residual activity,[21],112%
same,residual activity,[22],100%
same,residual activity,[23],101%
same,residual activity,[24],105%
same,residual activity,[25],96.4%
same,residual activity,[26],100%
same,residual activity,[27],101%
same,residual activity,[28],97.7%
same,residual activity,[29],110%
same,residual activity,[30],100%
same,residual activity,[31],104%
same,residual activity,[32],104%
same,residual activity,[33],122%
same,residual activity,[34],112%
same,residual activity,[35],100%
same,residual activity,[36],140%
same,residual activity,[37],95.7%
same,residual activity,[38],108%
same,residual activity,[39],95.1%
same,residual activity,[40],94.1%
same,residual activity,[41],105%
same,residual activity,[42],104%
c1ccc(-c2cnc(Nc3ccc(OCCN4CCCC4)cc3)s2)cc1,residual activity,[1],107%
same,residual activity,[2],106%
same,residual activity,[3],85.3%
same,residual activity,[4],99.4%
same,residual activity,[5],96.9%
same,residual activity,[6],92.3%
same,residual activity,[7],28.5%
same,residual activity,[8],97%
same,residual activity,[9],92.9%
same,residual activity,[10],87.1%
same,residual activity,[11],95.3%
same,residual activity,[12],98.6%
same,residual activity,[13],97.2%
same,residual activity,[14],96.7%
same,residual activity,[15],65.1% and 87.5%
same,residual activity,[16],66.6%
same,residual activity,[17],95%
same,residual activity,[18],97.5%
same,residual activity,[19],83%
same,residual activity,[20],98.1%
same,residual activity,[21],104%
same,residual activity,[22],92.4%
same,residual activity,[23],98.3%
same,residual activity,[24],102%
same,residual activity,[25],58.9%
same,residual activity,[26],38.4%
same,residual activity,[27],95.8%
same,residual activity,[28],91.3%
same,residual activity,[29],83.5%
same,residual activity,[30],99.4%
same,residual activity,[31],108%
same,residual activity,[32],101%
same,residual activity,[33],56.6%
same,residual activity,[34],120%
same,residual activity,[35],98.7%
same,residual activity,[36],129%
same,residual activity,[37],97%
same,residual activity,[38],92%
same,residual activity,[39],81.1%
same,residual activity,[40],94.3%
same,residual activity,[41],84.9%
same,residual activity,[42],95.4%
O=C1NC(=O)c2c1c1c3ccccc3[nH]c1c1[nH]c3cc(Br)ccc3c21,residual activity,[1],84.5%
same,residual activity,[2],105%
same,residual activity,[3],95.8%
same,residual activity,[4],97%
same,residual activity,[5],85.3%
same,residual activity,[6],45.2%
same,residual activity,[7],82.6%
same,residual activity,[8],90.5%
same,residual activity,[9],88.3%
same,residual activity,[10],53.5%
same,residual activity,[11],60.7%
same,residual activity,[12],92.4%
same,residual activity,[13],96.2%
same,residual activity,[14],90.9%
same,residual activity,[15],92.1% and 93.2%
same,residual activity,[16],97.4%
same,residual activity,[17],109%
same,residual activity,[18],107%
same,residual activity,[19],93.9%
same,residual activity,[20],92.2%
same,residual activity,[21],99.1%
same,residual activity,[22],86.9%
same,residual activity,[23],91.8%
same,residual activity,[24],98.7%
same,residual activity,[25],38.7%
same,residual activity,[26],96%
same,residual activity,[27],97.6%
same,residual activity,[28],98.2%
same,residual activity,[29],46.6%
same,residual activity,[30],86%
same,residual activity,[31],78.6%
same,residual activity,[32],92.2%
same,residual activity,[33],99.1%
same,residual activity,[34],4.69%
same,residual activity,[35],100%
same,residual activity,[36],61.8%
same,residual activity,[37],88.7%
same,residual activity,[38],87.2%
same,residual activity,[39],95.2%
same,residual activity,[40],97.3%
same,residual activity,[41],21.1%
same,residual activity,[42],95.5%

# — the kinase profiling compilation of Christmann-Franck et al. (2016)
